In PMC6434189, “Peperomin E and its orally bioavailable analog induce oxidative stress-mediated apoptosis of acute myeloid leukemia progenitor cells by targeting thioredoxin reductase” (Redox Biology, 2019):

Tests used:
[1] = parameters: method as in earlier work; conditions: within 24 h; cited from earlier work
[2] = target: T1, TrxR1 nSec498 (Homo sapiens, UniProt Q16881); test: BLI binding assay, TrxR1 without Sec498; conditions: NADPH reduced TrxR1 nSec498 0.9 μM
T1 construct: protein fragment, without selenocysteine residue; purchased Abcam ab168011
T1 sequence (Q16881 11-497 isoform Q16881-5): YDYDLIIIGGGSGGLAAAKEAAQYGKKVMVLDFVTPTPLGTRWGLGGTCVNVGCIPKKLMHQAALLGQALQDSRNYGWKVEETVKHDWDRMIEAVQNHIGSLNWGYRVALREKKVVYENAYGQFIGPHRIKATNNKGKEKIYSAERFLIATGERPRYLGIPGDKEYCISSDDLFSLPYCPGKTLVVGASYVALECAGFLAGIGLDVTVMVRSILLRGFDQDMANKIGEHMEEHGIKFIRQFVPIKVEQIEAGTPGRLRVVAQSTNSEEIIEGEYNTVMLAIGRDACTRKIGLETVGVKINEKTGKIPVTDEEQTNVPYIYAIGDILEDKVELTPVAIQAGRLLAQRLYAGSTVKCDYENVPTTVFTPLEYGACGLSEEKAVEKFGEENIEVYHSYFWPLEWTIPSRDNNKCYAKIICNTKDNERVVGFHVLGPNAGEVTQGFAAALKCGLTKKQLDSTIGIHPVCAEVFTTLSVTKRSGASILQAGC
Procedure: The binding kinetics of PepE or PepA to purified recombinant proteins were determined using BLI on an Octet RED 96 system (ForteBio, Shanghai, China) following the manufacturer's protocol. All interaction analyses were performed at 25 °C in PBS with 0.2% DMSO. Purified recombinant proteins (0.9 μM, the TrxR1 full length and TrxR1 protein fragment were pre-reduced by 400 μM of NADPH before test) were pre-labeled with biotin using […] (Abcam) following the manufacturer's instruction. Loading of the Dip and Read Super Streptavidin (SSA) Biosensors (ForteBio) were conducted by exposing biotinylated proteins to biosensor tips for 2 h. The 96-well microplates used in the Octet were filled with 200 μL sample or buffer per well and agitated at 1000 rpm. The loaded biosensors were washed in buffer for 600 s and transferred to wells containing PepE at concentrations of 0.625, 1.25, 2.5, 5, and 10 μM or PepA at concentrations of 1.25, 2.5, 5, 10 and 20 μM, respectively, in the buffer. […] Reference measurements were conducted using the buffer instead of PepE (or PepA). A parallel set of SA unloaded biosensors was prepared to act as a control. […] Kinetic parameters (Kon and Kdis) and affinity (KD) were determined from a global fit to a 1:1 binding model of the data between proteins and PepE using Octet software (ForteBio).

[3] = target: T2, TrxR1 without Sec498 residue (TrxR1 nSec) (Homo sapiens, UniProt Q16881); test: In vitro TrxR1 activity assay (DTNB reduction), Sec-missing enzyme; format: biochemical; conditions: Sec-missing enzyme 0.1 μM
T2 construct: protein fragment, without selenocysteine residue; purchased Abcam ab168011
T2 sequence (Q16881 1-497 isoform Q16881-5): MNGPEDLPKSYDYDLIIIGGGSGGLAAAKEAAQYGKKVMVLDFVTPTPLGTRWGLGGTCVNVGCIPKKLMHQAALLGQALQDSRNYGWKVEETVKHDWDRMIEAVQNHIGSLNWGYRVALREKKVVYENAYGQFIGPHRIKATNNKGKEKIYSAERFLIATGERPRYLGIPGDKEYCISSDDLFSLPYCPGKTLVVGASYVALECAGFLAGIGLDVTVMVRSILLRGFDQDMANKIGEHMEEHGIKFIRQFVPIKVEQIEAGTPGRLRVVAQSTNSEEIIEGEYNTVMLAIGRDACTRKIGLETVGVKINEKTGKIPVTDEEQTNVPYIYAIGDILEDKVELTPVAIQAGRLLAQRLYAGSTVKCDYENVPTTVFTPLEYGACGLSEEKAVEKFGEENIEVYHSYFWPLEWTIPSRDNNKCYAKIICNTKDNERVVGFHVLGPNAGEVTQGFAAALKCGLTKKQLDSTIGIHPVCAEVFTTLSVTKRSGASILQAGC
Procedure: (§1) The in vitro TrxR1 activity assay was performed using the DTNB reduction assay. Briefly, 0.1 μM recombinant human TrxR1 or TrxR1 without Sec498 residue (TrxR1 nSec) protein was reduced with 100 μM NADPH in assay buffer (50 mM Tris-HCl, 1 mM EDTA, pH = 7.5) for 30 min at room temperature. The reduced proteins was then treated with the indicated concentrations of PepE (final concentrations of 0.25, 0.5, 1, 2, 4, 6 μM), respectively, and incubated for 1 h at 37 °C. A mixture of assay buffer solution (50 mM Tris-HCl, 1 mM EDTA, pH = 7.5) containing DTNB and NADPH was added then added, making the final concentrations of DTNB and NADPH 2 mM and 200 μM, respectively. The absorbance was monitored at 412 nm using the SpectraMax i3x microplate reader (Molecular Devices). The linear increase of absorbance during the initial 3 min was recorded for calculating the relative enzyme activity. The same amount of DMSO was added to the control experiments and the activity is expressed as the percentage of the control.

[4] = target: T3, recombinant human TrxR1 (Homo sapiens, UniProt Q16881); test: In vitro TrxR1 activity assay (DTNB reduction); format: biochemical
T3 construct: purchased Abcam ab204206
T3 sequence (Q16881 1-499 isoform Q16881-5): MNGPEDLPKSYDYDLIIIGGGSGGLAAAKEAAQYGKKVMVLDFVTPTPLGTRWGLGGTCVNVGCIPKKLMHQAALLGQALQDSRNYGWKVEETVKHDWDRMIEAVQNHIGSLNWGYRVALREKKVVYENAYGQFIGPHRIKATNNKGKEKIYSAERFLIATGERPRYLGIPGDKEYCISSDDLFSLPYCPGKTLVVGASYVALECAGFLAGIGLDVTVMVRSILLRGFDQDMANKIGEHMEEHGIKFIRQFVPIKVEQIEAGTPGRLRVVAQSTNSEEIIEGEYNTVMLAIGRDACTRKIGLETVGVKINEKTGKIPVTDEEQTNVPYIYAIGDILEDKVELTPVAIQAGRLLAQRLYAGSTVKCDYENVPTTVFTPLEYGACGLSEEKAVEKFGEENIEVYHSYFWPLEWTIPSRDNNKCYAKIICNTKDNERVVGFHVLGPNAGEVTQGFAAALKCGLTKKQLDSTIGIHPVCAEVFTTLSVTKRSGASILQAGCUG
Procedure: as §1

| SMILES | stability in the cell cultural media (without cells) [1] | Kd [2] [µM] | IC50 [3] [µM] | IC50 ([4]; DTNB reduction assay, NADPH-reduced TrxR1 0.1 μM, 1 h at 37 °C) [µM] | reversibility of TrxR1 inhibition ([4]; removal of PepE by Sephadex G-25 desalting column did not recover activity (data not shown)) |
| --- | --- | --- | --- | --- | --- |
| COc1cc(C(c2cc(OC)c3c(c2)OCO3)[C@@H]2COC(=O)[C@H]2CN(C)CCO)cc2c1OCO2 [DMAPE, (2S,3S)-6-Methyl (hydroxyethyl) amino-2,6-dihydropeperomin E] | stable | – | – | – | – |
| C=C1C(=O)OC[C@H]1C(c1cc(OC)c2c(c1)OCO2)c1cc(OC)c2c(c1)OCO2 [PepE, Peperomin E] | – | 11.9 | > 8 | 0.94 | irreversibly |
